Reference: ChEMBL document CHEMBL1146410, “Bioactive Terpenoids from Octocorallia. 4. Three New Cembrane-Type Diterpenoids from the Soft Coral Lobophytum schoedei” (J Nat Prod, 1997)

Legend:
Type in all cases: organism-based
[1] = Toxicity in Artemia salina larvae at 30 ppm; conditions: in vivo, read-out: Activity
[2] = test system: Oryzias latipes; assay: Ichthyotoxicity in Oryzias latipes; conditions: in vivo
[3] = test system: Oryzias latipes; assay: Toxicity in Oryzias latipes; conditions: in vivo

| SMILES | mortality at 30 ppm [1] [%] | LC100 [2] [ppm] | LC50 [3] [ppm] |
| --- | --- | --- | --- |
| CC(=O)OCC1=C\CC/C(C)=C/CC[C@@]2(C)CC[C@@](C(C)C)(\C=C\1)O2 [LOBOPHYNIN A] | 20 | – | – |
| CC(=O)OCC1=C2CC/C(C)=C/CC[C@@]3(C)O[C@@H]3CC/C(C)=C/[C@H]2OC1 [LOBOPHYNIN B] | 25 | – | – |
| COC(=O)/C1=C/CC/C(C)=C/[C@@H]2OCC(C)=C2CC[C@@]2(C)O[C@@H]2CC1 [LOBOPHYNIN C] | – | 30 | 22.5 |
